Reference: US20240034736A1, “HSD17B13 INHIBITORS AND USES THEREOF” (FL2022-001, Inc., priority 2020, published 2024)

Molecular target: Recombinant human HSD17B13 enzyme (Homo sapiens (Human), UniProt Q7Z5P4)
Test: HSD17b13 NAD(P)H-Glo Biochemical Assay
Details: 50 uM estradiol, 1 mM NAD+; read-out: HSD17β13 IC50
Description: Recombinant human HSD17B13 enzyme. Substrate: estradiol (Sigma β-Estradiol E8875), 100 mM in DMSO. […] Assay buffer final concentration: 20 mM Tris pH7.4 with 0.002% Tween-20 and 0.02% BSA. […] Enzymatic activity detected by NAD(P)H-Glo™ Detection System (Promega G9062).
Inhibitor compounds were serially diluted in DMSO and then further diluted in assay buffer to a 10× concentration consisting of 1% DMSO.
HSD17b13 enzyme was diluted in 1× assay buffer to the desired enzyme concentration based on the specific activity of the enzyme lot. 20 uL of diluted enzyme was added to each well along with 2.5 uL of 10× inhibitor solution. Assay plate was incubated at RT for 20 minutes, and then 2.5 uL of a 10× substrate/cofactor mix was added to each well for a final concentration of 50 uM estradiol and 1 mMNAD+. Assay plate was incubated at 37° C. for 3 hours. NAD(P)H-Glo™ Detection System reagents were prepared according to manufacturer's specifications, and 25 uL was added to each well. After incubating for 1 hour at RT, luminescence was measured.

Sequence of Recombinant human HSD17B13 enzyme (Q7Z5P4 20-300): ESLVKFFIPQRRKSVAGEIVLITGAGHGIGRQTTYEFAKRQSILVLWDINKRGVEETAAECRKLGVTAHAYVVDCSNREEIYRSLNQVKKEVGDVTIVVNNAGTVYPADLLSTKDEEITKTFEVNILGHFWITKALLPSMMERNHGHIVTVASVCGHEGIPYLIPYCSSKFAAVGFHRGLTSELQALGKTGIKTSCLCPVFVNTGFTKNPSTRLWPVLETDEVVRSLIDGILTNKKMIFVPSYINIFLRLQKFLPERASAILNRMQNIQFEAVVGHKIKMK

Structure (SMILES)	IC50 [nM]
COc1ccc(-c2ccc3c(cnn3-c3cc(O)c(F)c(C(F)(F)F)c3)c2)cc1Cl [Compound 1.02, 5-(5-(3-Chloro-4-methoxyphenyl)-1H-indazol-1-yl)-2-fluoro-3-(trifluoromethyl)phenol]	100 to 1000
COc1ccc(-c2ccc3c(cnn3-c3cc(O)c(F)c(F)c3F)c2)cc1Cl [Compound 1.03, 5-(5-(3-Chloro-4-methoxyphenyl)-1H-indazol-1-yl)-2,3,4-trifluorophenol]	100 to 1000
Oc1ccc(-c2ccc3c(cnn3-c3cc(O)c(F)c(C(F)(F)F)c3)c2)cc1Cl [Compound 1.04, 5-(5-(3-Chloro-4-hydroxyphenyl)-1H-indazol-1-yl)-2-fluoro-3-(trifluoromethyl)phenol]	< 100
Oc1ccc(-c2ccc3c(cnn3-c3cc(O)c(F)c(F)c3F)c2)cc1Cl [Compound 1.05, 5-(5-(3-Chloro-4-hydroxyphenyl)-1H-indazol-1-yl)-2,3,4-trifluorophenol]	100 to 1000
Oc1cc(-n2ccc3cc(-c4ccc(O)c(Cl)c4)ccc32)ccc1F [Compound 1.06, 2-Chloro-4-(1-(4-fluoro-3-hydroxyphenyl)-1H-indol-5-yl)phenol]	100 to 1000
Oc1cc(F)cc(-n2ncc3cc(-c4ccc(O)c(Cl)c4)ccc32)c1 [Compound 3, 2-Chloro-4-(1-(3-fluoro-5-hydroxyphenyl)-1H-indazol-5-yl)phenol]	1000 to 30000
Oc1ccc(-c2ccc3c(cnn3-c3cccc(O)c3F)c2)cc1Cl [Compound 3.01, 3-(5-(3-Chloro-4-hydroxyphenyl)-1H-indazol-1-yl)-2-fluorophenol]	100 to 1000
Oc1ccc(-c2ccc3c(cnn3-c3cc(O)c(F)c(F)c3)c2)cc1Cl [Compound 3.03, 5-(5-(3-Chloro-4-hydroxyphenyl)-1H-indazol-1-yl)-2,3-difluorophenol]	100 to 1000
Oc1cc(-n2ncc3cc(-c4ccc(O)c(Cl)c4)ccc32)cc(C(F)(F)F)c1 [Compound 3.04, 2-Chloro-4-(1-(3-hydroxy-5-(trifluoromethyl)phenyl)-1H-indazol-5-yl)phenol]	100 to 1000
Cc1nn(-c2ccc(F)c(O)c2)c2ccc(-c3ccc(O)c(Cl)c3)cc12 [Compound 4.05, 2-Chloro-4-(1-(4-fluoro-3-hydroxyphenyl)-3-methyl-1H-indazol-5-yl)phenol]	100 to 1000
Oc1cc(-n2cc3cc(-c4ccc(O)c(Cl)c4)ccc3n2)ccc1F [Compound 4.06, 2-Chloro-4-(2-(4-fluoro-3-hydroxyphenyl)-2H-indazol-5-yl)phenol]	100 to 1000
Oc1ccc(-c2ccc3c(cnn3-c3cc(O)c(F)c(F)c3)c2)c(Cl)c1 [Compound 4.10, 5-(5-(2-Chloro-4-hydroxyphenyl)-1H-indazol-1-yl)-2,3-difluorophenol]	100 to 1000
Oc1cc(-n2ncc3cc(-c4ccc(O)c(Cl)c4)ncc32)ccc1F [Compound 4.13, 2-Chloro-4-(1-(4-fluoro-3-hydroxyphenyl)-1H-pyrazolo[3,4-c]pyridine-5-yl)phenol]	100 to 1000
Oc1cc(-n2nc(Cl)c3cc(-c4ccc(O)c(Cl)c4)ccc32)ccc1F [Compound 4.14, 2-Chloro-4-(3-chloro-1-(4-fluoro-3-hydroxyphenyl)-1H-indazol-5-yl)phenol]	100 to 1000
N#Cc1nn(-c2ccc(F)c(O)c2)c2ccc(-c3ccc(O)c(Cl)c3)cc12 [Compound 4.15, 5-(3-Chloro-4-hydroxyphenyl)-1-(4-fluoro-3-hydroxyphenyl)-1H-indazole-3-carbonitrile]	100 to 1000
Oc1ccc(-c2cc3cnn(-c4cc(O)c(F)c(F)c4)c3cc2Cl)cc1Cl [Compound 4.16, 5-(6-Chloro-5-(3-chloro-4-hydroxyphenyl)-1H-indazol-1-yl)-2,3-difluorophenol]	100 to 1000
Oc1ccc(-c2cc3cnn(-c4cc(O)c(F)c(F)c4)c3cc2Cl)c(Cl)c1 [Compound 4.17, 5-(6-Chloro-5-(2-chloro-4-hydroxyphenyl)-1H-indazol-1-yl)-2,3-difluorophenol]	100 to 1000
Oc1cc(-n2ncc3cc(-c4ccc(N5CCOCC5)cc4Cl)ccc32)ccc1F [Compound 5.09, 5-(5-(2-Chloro-4-morpholinophenyl)-1H-indazol-1-yl)-2-fluorophenol]	1000 to 30000

Next, values leading:

IC50 [nM]	Structure (SMILES)
1000 to 30000	Oc1ccc(F)c(-n2ncc3cc(-c4ccc(O)c(Cl)c4)ccc32)c1 [Compound 1, 2-Chloro-4-(1-(2-fluoro-5-hydroxyphenyl)-1H-indazol-5-yl)phenol]
100 to 1000	Oc1cc(-n2ncc3cc(-c4cccc(Cl)c4)ccc32)ccc1F [Compound 1.01, 5-(5-(3-Chlorophenyl)-1H-indazol-1-yl)-2-fluorophenol]
100 to 1000	COc1ccc(-c2ccc3c(cnn3-c3ccc(F)c(O)c3)c2)cc1Cl [Compound 2, 5-(5-(3-Chloro-4-methoxyphenyl)-1H-indazol-1-yl)-2-fluorophenol]
1000 to 30000	O=C(O)Cc1ccc(-c2ccc3c(cnn3-c3ccc(F)c(O)c3)c2)cc1 [Compound 2.01, 2-(4-(1-(4-Fluoro-3-hydroxyphenyl)-1H-indazol-5-yl)phenyl)acetic acid]
1000 to 30000	Oc1ccc(-c2ccc3c(cnn3-c3ccc(C(F)(F)F)c(O)c3)c2)cc1Cl [Compound 3.02, 2-Chloro-4-(1-(3-hydroxy-4-(trifluoromethyl)phenyl)-1H-indazol-5-yl)phenol]
1000 to 30000	Oc1cccc(-n2ncc3cc(-c4ccc(O)c(Cl)c4)ccc32)c1 [Compound 3.05, 2-Chloro-4-(1-(3-hydroxyphenyl)-1H-indazol-5-yl)phenol]
100 to 1000	Oc1cc(-n2ncc3cc(-c4ccc(O)c(Cl)c4)ccc32)ccc1F [Compound 4, 2-Chloro-4-(1-(4-fluoro-3-hydroxyphenyl)-1H-indazol-5-yl)phenol]
100 to 1000	Oc1ccc(-c2ccc3c(cnn3-c3ccc(F)c(O)c3)c2)cc1 [Compound 4.01, 2-Fluoro-5-(5-(4-hydroxyphenyl)-1H-indazol-1-yl)phenol]
100 to 1000	CS(=O)(=O)Nc1ccc(-c2ccc3c(cnn3-c3ccc(F)c(O)c3)c2)cc1 [Compound 4.02, N-(4-(1-(4-Fluoro-3-hydroxyphenyl)-1H-indazol-5-yl)phenyl)methanesulfonamide]
100 to 1000	Oc1cccc(-c2ccc3c(cnn3-c3ccc(F)c(O)c3)c2)c1 [Compound 4.03, 2-Fluoro-5-(5-(3-hydroxyphenyl)-1H-indazol-1-yl)phenol]
1000 to 30000	CS(=O)(=O)Nc1cccc(-c2ccc3c(cnn3-c3ccc(F)c(O)c3)c2)c1 [Compound 4.04, N-(3-(1-(4-Fluoro-3-hydroxyphenyl)-1H-indazol-5-yl)phenyl)methanesulfonamide]
100 to 1000	Cc1ccc(-c2ccc3c(cnn3-c3ccc(F)c(O)c3)c2)cc1 [Compound 4.07, 2-Fluoro-5-(5-(p-tolyl)-1H-indazol-1-yl)phenol]
1000 to 30000	Cc1cccc(-c2ccc3c(cnn3-c3ccc(F)c(O)c3)c2)c1 [Compound 4.08, 2-Fluoro-5-(5-(m-tolyl)-1H-indazol-1-yl)phenol]
100 to 1000	Oc1cc(-n2ncc3cc(-c4ccc(Cl)cc4)ccc32)ccc1F [Compound 4.09, 5-(5-(4-Chlorophenyl)-1H-indazol-1-yl)-2-fluorophenol]
100 to 1000	Oc1cc(-n2ncc3cc(-c4ccccc4Cl)ccc32)ccc1F [Compound 4.11, 5-(5-(2-Chlorophenyl)-1H-indazol-1-yl)-2-fluorophenol]
100 to 1000	Cc1ccccc1-c1ccc2c(cnn2-c2ccc(F)c(O)c2)c1 [Compound 4.12, 2-Fluoro-5-(5-(o-tolyl)-1H-indazol-1-yl)phenol]
100 to 1000	Oc1cc(-n2ncc3cc(-c4ccc(O)c(Cl)c4)ccc32)ccc1F [Compound 5, 2-Chloro-4-(1-(4-fluoro-3-hydroxyphenyl)-1H-indazol-5-yl)phenol]
100 to 1000	Oc1cc(-n2ncc3cc(-c4ccc(Cl)c(O)c4)ccc32)ccc1F [Compound 5.01, 2-Chloro-5-(1-(4-fluoro-3-hydroxyphenyl)-1H-indazol-5-yl)phenol]
100 to 1000	Cc1cc(-c2ccc3c(cnn3-c3ccc(F)c(O)c3)c2)ccc1O [Compound 5.02, 4-(1-(4-Fluoro-3-hydroxyphenyl)-1H-indazol-5-yl)-2-methylphenol]
100 to 1000	COc1ccc(-c2ccc3c(cnn3-c3ccc(F)c(O)c3)c2)c(Cl)c1 [Compound 5.03, 5-(5-(2-Chloro-4-methoxyphenyl)-1H-indazol-1-yl)-2-fluorophenol]
100 to 1000	NS(=O)(=O)c1ccc(-c2ccc3c(cnn3-c3ccc(F)c(O)c3)c2)cc1 [Compound 5.04, 4-(1-(4-Fluoro-3-hydroxyphenyl)-1H-indazol-5-yl)benzenesulfonamide]
100 to 1000	CS(=O)(=O)c1ccc(-c2ccc3c(cnn3-c3ccc(F)c(O)c3)c2)cc1 [Compound 5.05, 2-Fluoro-5-(5-(4-(methylsulfonyl)phenyl)-1H-indazol-1-yl)phenol]
100 to 1000	Oc1cc(-n2ncc3cc(-c4ccc(OC(F)(F)F)cc4Cl)ccc32)ccc1F [Compound 5.06, 5-(5-(2-Chloro-4-(trifluoromethoxy)phenyl)-1H-indazol-1-yl)-2-fluorophenol]
100 to 1000	N#Cc1cc(O)ccc1-c1ccc2c(cnn2-c2ccc(F)c(O)c2)c1 [Compound 5.07, 2-(1-(4-Fluoro-3-hydroxyphenyl)-1H-indazol-5-yl)-5-hydroxybenzonitrile]
100 to 1000	Oc1cc(-n2ncc3cc(-c4ccc(OC(F)F)cc4Cl)ccc32)ccc1F [Compound 5.08, 5-(5-(2-Chloro-4-(difluoromethoxy)phenyl)-1H-indazol-1-yl)-2-fluorophenol]
